{"source": "paper PMC5893282", "about": "(ACS infectious diseases, 2018)", "key": {"[1]": {"test_system": "E. coli ΔtolC PrecA-GFP SOS reporter", "experiment": "Cell-based SOS reporter assay", "conditions": "ciprofloxacin 128 ng/mL, 2 hours, ΔtolC reporter strain"}, "FlAsH-LexAPa with RecA*": {"target": "FlAsH-LexAPa with RecA* (Pseudomonas aeruginosa, UniProt P37452)", "sequence (P37452 81-204)": "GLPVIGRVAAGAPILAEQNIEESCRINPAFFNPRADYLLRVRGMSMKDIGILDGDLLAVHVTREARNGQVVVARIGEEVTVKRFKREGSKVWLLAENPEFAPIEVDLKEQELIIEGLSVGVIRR", "experiment": "Pilot screen of Microsource Spectrum library with FlAsH-LexAPa", "format": "biochemical, P. aeruginosa", "conditions": "fixed concentration of 16 μM, single endpoint"}}}
{"smiles": "O=C(O)c1cn(C2CC2)c2cc(N3CCNCC3)c(F)cc2c1=O", "note": "[ciprofloxacin]", "values": [{"measurement": "Increase in GFP fluorescence over the unstressed control", "setting": "[1]", "result": "~ 50 fold"}]}
{"smiles": "Cc1ccc(C(=O)Nc2ccc(S(=O)(=O)O)c3cc(S(=O)(=O)O)cc(S(=O)(=O)O)c23)cc1NC(=O)c1cccc(NC(=O)Nc2cccc(C(=O)Nc3cc(C(=O)Nc4ccc(S(=O)(=O)O)c5cc(S(=O)(=O)O)cc(S(=O)(=O)O)c45)ccc3C)c2)c1", "note": "[suramin]", "values": [{"measurement": "Hit in pilot screen", "setting": "FlAsH-LexAPa with RecA*", "result": "identified in this pilot screen"}]}
